Assay results as given in patent publication US20240150369A1, “CYCLIN-DEPENDENT KINASE INHIBITING COMPOUNDS FOR THE TREATMENT OF MEDICAL DISORDERS” (G1 Therapeutics, Inc., priority 2020, published 2024).

Key:
Assay type in all cases: biochemical
CDK4/Cyclin D1 = CDK4/Cyclin D1 (Homo sapiens (Human), UniProt P11802); experiment: CDK4/Cyclin D1 kinase assay (Nanosyn, Caliper microfluidic); details: 12-point dose-response, singlicate, at Km for ATP; ATP 200 μM; 3 hr
Procedure: (§1) Selected compounds disclosed herein were tested in kinase assays by Nanosyn (Santa Clara, CA) to determine their inhibitory effect on these CDKs. The assays were performed using microfluidic kinase detection technology (Caliper Assay Platform). The compounds were tested in 12-point dose-response format in singlicate at Km for ATP. Specifics of each assay are as described below:
CDK4/Cyclin D1: Enzyme concentration: 1 nM; ATP concentration: 200 μM; Incubation time: 3 hr.

CDK1/Cyclin B1 = CDK1/Cyclin B1 (Homo sapiens (Human), UniProt P06493); experiment: CDK1/Cyclin B1 kinase assay (Nanosyn, Caliper microfluidic); details: 12-point dose-response, singlicate, at Km for ATP; ATP 40 μM; 3 hr
Procedure: as §1
CDK1/Cyclin B1: Enzyme concentration: 0.08 nM; ATP concentration: 40 μM; Incubation time: 3 hr.

CDK2/Cyclin E = CDK2/Cyclin E (Homo sapiens (Human), UniProt P24941); experiment: CDK2/Cyclin E kinase assay (Nanosyn, Caliper microfluidic); details: 12-point dose-response, singlicate, at Km for ATP; ATP 100 μM; 3 hr
Procedure: as §1
CDK2/Cyclin E: Enzyme concentration: 0.15 nM; ATP concentration: 100 μM; Incubation time: 3 hr.

CDK6/Cyclin D3 = CDK6/Cyclin D3 (Homo sapiens (Human), UniProt Q00534); experiment: CDK6/Cyclin D3 kinase assay (Nanosyn, Caliper microfluidic); details: 12-point dose-response, singlicate, at Km for ATP; ATP 300 μM; 3 hr
Procedure: as §1
CDK6/Cyclin D3: Enzyme concentration: 2 nM; ATP concentration: 300 μM; Incubation time: 3 hr.

CDK2/Cyclin A = CDK2/Cyclin A (Homo sapiens (Human), UniProt P24941); experiment: CDK2/Cyclin A kinase assay (Nanosyn, Caliper microfluidic); details: 12-point dose-response, singlicate, at Km for ATP; ATP 50 μM; 3 hr
Procedure: as §1
CDK2/Cyclin A: Enzyme concentration: 0.1 nM; ATP concentration: 50 μM; Incubation time: 3 hr.

CDK3-CYCLIN-E = CDK3-CYCLIN-E (Homo sapiens (Human), UniProt Q00526); experiment: CDK3-Cyclin-E kinase assay (Nanosyn, Caliper microfluidic); details: 12-point dose-response, singlicate, at Km for ATP
Procedure: as §1, with “ATP.” for “ATP. Specifics of each assay are as described below:”

CDK7 = CDK7 (Homo sapiens (Human), UniProt P50613); experiment: CDK7 kinase assay (Nanosyn, Caliper microfluidic); details: 12-point dose-response, singlicate, at Km for ATP
Procedure: as §1, with “ATP.” for “ATP. Specifics of each assay are as described below:”

CDK9/Cyclin T1 = CDK9/Cyclin T1 (Homo sapiens (Human), UniProt P50750); experiment: CDK9/Cyclin T1 kinase assay (Nanosyn, Caliper microfluidic); details: 12-point dose-response, singlicate, at Km for ATP; ATP 10 μM; 17 hr
Procedure: as §1
CDK9/Cyclin T1: Enzyme concentration: 5 nM; ATP concentration: 10 μM; Incubation time: 17 hr.

CDK4/Cyclin D1, sequence (P11802 whole entry): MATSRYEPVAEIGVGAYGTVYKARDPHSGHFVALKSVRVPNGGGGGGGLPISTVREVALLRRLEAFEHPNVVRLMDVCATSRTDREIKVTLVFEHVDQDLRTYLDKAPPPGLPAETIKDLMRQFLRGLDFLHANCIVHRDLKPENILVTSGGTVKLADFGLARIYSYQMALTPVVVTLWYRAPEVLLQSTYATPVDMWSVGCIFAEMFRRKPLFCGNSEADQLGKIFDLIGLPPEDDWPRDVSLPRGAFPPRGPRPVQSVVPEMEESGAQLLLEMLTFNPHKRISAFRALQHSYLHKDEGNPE
CDK4/Cyclin D1, sequence (P24385 whole entry partner): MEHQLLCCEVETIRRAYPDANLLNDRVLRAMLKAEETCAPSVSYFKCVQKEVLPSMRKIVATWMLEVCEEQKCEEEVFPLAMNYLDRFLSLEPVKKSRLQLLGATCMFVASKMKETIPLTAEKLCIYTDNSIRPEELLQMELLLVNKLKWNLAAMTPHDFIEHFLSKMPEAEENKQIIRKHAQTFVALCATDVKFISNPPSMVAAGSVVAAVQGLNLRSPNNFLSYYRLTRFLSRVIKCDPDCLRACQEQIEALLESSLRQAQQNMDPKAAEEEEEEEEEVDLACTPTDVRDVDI
CDK7, sequence (P50613 whole entry): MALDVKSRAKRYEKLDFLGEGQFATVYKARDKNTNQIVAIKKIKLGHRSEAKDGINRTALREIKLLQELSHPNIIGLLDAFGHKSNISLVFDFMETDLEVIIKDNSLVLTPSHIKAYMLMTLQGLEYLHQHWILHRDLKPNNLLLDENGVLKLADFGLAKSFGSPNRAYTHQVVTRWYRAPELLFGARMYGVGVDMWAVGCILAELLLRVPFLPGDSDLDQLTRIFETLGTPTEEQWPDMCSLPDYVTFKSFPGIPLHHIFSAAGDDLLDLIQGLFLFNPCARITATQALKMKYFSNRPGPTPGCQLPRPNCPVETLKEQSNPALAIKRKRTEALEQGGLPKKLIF
CDK7, sequence (P51946 whole entry partner): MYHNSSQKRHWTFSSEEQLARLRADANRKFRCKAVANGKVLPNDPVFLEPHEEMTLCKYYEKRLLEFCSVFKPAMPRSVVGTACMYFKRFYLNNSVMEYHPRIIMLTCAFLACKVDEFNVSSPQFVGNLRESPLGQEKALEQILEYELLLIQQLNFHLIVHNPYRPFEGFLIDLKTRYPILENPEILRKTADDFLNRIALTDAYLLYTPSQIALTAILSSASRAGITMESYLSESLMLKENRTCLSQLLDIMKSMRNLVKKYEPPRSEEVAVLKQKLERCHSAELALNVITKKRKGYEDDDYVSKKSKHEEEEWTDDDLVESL
CDK7, sequence (P51948 whole entry partner): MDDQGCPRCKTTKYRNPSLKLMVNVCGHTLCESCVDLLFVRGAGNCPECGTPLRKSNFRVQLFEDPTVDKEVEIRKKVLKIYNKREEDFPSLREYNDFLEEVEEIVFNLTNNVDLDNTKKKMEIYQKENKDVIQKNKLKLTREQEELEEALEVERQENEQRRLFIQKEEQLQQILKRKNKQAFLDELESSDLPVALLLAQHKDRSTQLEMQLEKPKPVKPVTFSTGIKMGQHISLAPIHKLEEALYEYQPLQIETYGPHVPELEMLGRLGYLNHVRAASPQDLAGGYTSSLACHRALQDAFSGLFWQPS
CDK9/Cyclin T1, sequence (P50750 whole entry): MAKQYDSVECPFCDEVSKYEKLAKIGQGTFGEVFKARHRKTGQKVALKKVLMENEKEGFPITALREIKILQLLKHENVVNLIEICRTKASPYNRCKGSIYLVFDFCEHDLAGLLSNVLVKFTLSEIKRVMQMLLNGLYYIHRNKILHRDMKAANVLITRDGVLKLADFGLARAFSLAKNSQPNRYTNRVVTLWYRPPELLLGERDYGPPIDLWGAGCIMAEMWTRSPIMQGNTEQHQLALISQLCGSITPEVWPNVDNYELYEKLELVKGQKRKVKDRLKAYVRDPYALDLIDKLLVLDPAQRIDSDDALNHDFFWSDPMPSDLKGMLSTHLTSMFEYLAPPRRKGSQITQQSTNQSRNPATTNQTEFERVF
CDK9/Cyclin T1, sequence (O60563 whole entry partner): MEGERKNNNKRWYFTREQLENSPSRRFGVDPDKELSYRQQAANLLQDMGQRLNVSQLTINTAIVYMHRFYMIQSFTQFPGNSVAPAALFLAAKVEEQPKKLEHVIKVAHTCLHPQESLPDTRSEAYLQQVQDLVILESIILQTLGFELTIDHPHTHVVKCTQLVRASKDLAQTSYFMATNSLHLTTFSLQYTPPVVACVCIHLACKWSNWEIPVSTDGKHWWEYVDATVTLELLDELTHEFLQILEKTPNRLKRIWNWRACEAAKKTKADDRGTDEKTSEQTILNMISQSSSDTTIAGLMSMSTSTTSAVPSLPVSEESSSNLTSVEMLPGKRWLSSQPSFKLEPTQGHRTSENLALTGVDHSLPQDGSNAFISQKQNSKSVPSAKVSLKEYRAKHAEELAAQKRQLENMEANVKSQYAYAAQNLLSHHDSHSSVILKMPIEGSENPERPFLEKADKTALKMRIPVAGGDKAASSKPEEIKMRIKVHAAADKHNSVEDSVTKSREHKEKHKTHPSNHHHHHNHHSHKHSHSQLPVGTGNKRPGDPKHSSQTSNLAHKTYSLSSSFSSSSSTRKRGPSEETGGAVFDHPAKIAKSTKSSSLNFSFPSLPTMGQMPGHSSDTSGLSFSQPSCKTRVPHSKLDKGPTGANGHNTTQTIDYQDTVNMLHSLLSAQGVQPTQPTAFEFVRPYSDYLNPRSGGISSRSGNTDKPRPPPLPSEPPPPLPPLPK
CDK1/Cyclin B1, sequence (P06493 whole entry): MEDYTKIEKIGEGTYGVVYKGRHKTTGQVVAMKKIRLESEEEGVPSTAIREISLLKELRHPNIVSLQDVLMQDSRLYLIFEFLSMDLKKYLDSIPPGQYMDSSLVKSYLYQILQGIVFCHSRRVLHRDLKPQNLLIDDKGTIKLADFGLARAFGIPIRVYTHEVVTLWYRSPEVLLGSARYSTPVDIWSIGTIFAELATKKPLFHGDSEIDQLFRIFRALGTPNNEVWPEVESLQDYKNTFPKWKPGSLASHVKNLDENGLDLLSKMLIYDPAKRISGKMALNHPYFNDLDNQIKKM
CDK1/Cyclin B1, sequence (P14635 whole entry partner): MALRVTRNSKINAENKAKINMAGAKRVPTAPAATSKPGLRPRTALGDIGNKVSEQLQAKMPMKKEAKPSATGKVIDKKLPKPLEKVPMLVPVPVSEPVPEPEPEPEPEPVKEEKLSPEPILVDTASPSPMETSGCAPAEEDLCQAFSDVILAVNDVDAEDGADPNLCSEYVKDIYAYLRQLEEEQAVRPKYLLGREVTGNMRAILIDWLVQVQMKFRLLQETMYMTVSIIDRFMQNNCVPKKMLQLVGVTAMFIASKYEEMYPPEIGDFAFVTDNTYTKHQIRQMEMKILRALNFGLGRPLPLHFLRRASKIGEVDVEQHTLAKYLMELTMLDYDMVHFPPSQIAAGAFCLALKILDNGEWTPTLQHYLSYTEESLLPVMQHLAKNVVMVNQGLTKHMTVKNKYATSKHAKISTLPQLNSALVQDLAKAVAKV
CDK6/Cyclin D3, sequence (Q00534 whole entry): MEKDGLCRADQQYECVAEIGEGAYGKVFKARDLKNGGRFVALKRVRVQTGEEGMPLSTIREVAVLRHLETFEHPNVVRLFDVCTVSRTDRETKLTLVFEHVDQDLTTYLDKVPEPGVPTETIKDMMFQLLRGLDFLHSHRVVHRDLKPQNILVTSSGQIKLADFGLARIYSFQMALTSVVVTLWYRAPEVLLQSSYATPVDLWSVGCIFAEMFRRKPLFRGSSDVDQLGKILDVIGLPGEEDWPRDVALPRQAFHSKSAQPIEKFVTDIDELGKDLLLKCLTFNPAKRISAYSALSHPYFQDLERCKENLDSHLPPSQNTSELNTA
CDK6/Cyclin D3, sequence (P30281 whole entry partner): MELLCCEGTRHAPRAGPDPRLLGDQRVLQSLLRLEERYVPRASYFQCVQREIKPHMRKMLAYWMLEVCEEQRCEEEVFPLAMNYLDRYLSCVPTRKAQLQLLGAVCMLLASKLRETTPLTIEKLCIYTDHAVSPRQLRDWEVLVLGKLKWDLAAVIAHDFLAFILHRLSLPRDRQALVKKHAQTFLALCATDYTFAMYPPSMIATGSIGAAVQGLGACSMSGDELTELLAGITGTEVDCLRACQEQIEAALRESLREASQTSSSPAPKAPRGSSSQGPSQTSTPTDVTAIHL

SMILES | IC50 (CDK4/Cyclin D1) | IC50 (CDK1/Cyclin B1) | IC50 (CDK2/Cyclin E) | IC50 (CDK6/Cyclin D3) | IC50 (CDK2/Cyclin A) | IC50 (CDK3-CYCLIN-E) | IC50 (CDK7) | IC50 (CDK9/Cyclin T1)
NC(=O)c1ccc(Nc2ncc3cc4n(c3n2)C2(CCCCC2)C(=O)NN4)cc1 [Compound 63, 4-((3′-oxo-2′,3′-dihydro-1′H-spiro[cyclohexane-1,4′-pyrimido[5′,4′:4,5]pyrrolo[2,1-c][1,2,4]triazin]-7′-yl)amino)benzamide] | 253 nM | 574 nM | 33 nM | 578 nM | 81 nM | 96 nM | 579 nM | 118 nM
CN(C)C(=O)c1ccc(Nc2ncc3cc4n(c3n2)C2(CCCCC2)C(=O)NN4)cc1 [Compound 62, N,N-dimethyl-4-((3′-oxo-2′,3′-dihydro-1′H-spiro[cyclohexane-1,4′-pyrimido[5′,4′:4,5]pyrrolo[2,1-c][1,2,4]triazin]-7′-yl)amino)benzamide] | 82 nM | 727 nM | 14 nM | 216 nM | 61 nM | 187 nM | > 1000 nM | 398 nM
CN1N=CC2(CCCCC2)n2c1cc1cnc(Nc3ccc(S(N)(=O)=O)cc3)nc12 [Compound 5, 4-((1′-methyl-1′H-spiro[cyclohexane-1,4′-pyrimido[5′,4′:4,5]pyrrolo[2,1-c][1,2,4]triazin]-7′-yl)amino)benzenesulfonamide] | 41 nM | 11 nM | 3 nM | 231 nM | 2 nM | 23 nM | 875 nM | 26 nM
Nc1ccc(S(=O)(=O)Nc2ncc3cc4n(c3n2)C2(CCCCC2)C(=O)NN4)cc1 [Compound 84, 4-amino-N-(3′-oxo-2′,3′-dihydro-1′H-spiro[cyclohexane-1,4′-pyrimido[5′,4′:4,5]pyrrolo[2,1-c][1,2,4]triazin]-7′-yl)benzenesulfonamide] | > 1000 nM | > 1000 nM | 207 nM | > 1000 nM | 571 nM | – | – | > 1000 nM
CN1CCN(C(=O)c2ccc(Nc3ncc4cc5n(c4n3)C3(CCCCC3)C(=O)NC5O)cc2)CC1 (centres unmarked) [Compound 53, 6′-hydroxy-2′-((4-(4-methylpiperazine-1-carbonyl)phenyl)amino)-6′,7′-dihydro-8′H-spiro[cyclohexane-1,9′-pyrazino[1′,2′:1,5]pyrrolo[2,3-d]pyrimidin]-8′-one] | 2 nM | 27 nM | 4 nM | 5 nM | 2 nM | 10 nM | 615 nM | 10 nM
CN1CCN(C(=O)c2ccc(Nc3ncc4cc5n(c4n3)C3(CCCCC3)C(=O)NN5)cc2)CC1 [Compound 52, 7′-((4-(4-methylpiperazine-1-carbonyl)phenyl)amino)-1′,2′-dihydro-3′H-spiro[cyclohexane-1,4′-pyrimido[5′,4′:4,5]pyrrolo[2,1-c][1,2,4]triazin]-3′-one] | 27 nM | 242 nM | 4.5 nM | 75 nM | 18 nM | 75 nM | > 1000 nM | 318 nM
CC1C(=O)N(C)c2cc3cnc(Nc4ccc(S(N)(=O)=O)cc4)nc3n2C12CCCCC2 (centres unmarked) [Compound 43, 4-((6′,8′-dimethyl-7′-oxo-7′,8′-dihydro-6′H-spiro[cyclohexane-1,9′-pyrrolo[1,5-a:2,3-d′]dipyrimidin]-2′-yl)amino)benzenesulfonamide] | – | 33 nM | 4 nM | – | 4 nM | 29 nM | – | 21 nM

The remaining lines, values ahead:

IC50 (CDK4/Cyclin D1) | IC50 (CDK1/Cyclin B1) | IC50 (CDK2/Cyclin E) | IC50 (CDK6/Cyclin D3) | IC50 (CDK2/Cyclin A) | IC50 (CDK3-CYCLIN-E) | IC50 (CDK7) | IC50 (CDK9/Cyclin T1) | SMILES
0.3 nM | 5 nM | 1 nM | 0.4 nM | 0.6 nM | 6 nM | 27 nM | 1 nM | O=C1NCC2(CCCCC2)n2c1cc1cnc(Nc3ccc(C(=O)N4CCNCC4)cc3)nc12 [Compound 55, 2′-((4-(piperazine-1-carbonyl)phenyl)amino)-7′,8′-dihydro-6′H-spiro[cyclohexane-1,9′-pyrazino[1′,2′:1,5]pyrrolo[2,3-d]pyrimidin]-6′-one]
113 nM | 78 nM | 4 nM | 51 nM | 2 nM | 28 nM | 118 nM | 2 nM | CN1CCN(S(=O)(=O)c2ccc(Nc3ncc4cc5n(c4n3)C3(CCCCC3)C(=O)NC5O)cc2)CC1 (centres unmarked) [Compound 50, 6′-hydroxy-2′-((4-((4-methylpiperazin-1-yl)sulfonyl)phenyl)amino)-6′,7′-dihydro-8′H-spiro[cyclohexane-1,9′-pyrazino[1′,2′:1,5]pyrrolo[2,3-d]pyrimidin]-8′-one]
436 nM | 108 nM | 19 nM | > 1000 nM | 16 nM | 73 nM | > 1000 nM | 240 nM | CC1=NNc2cc3cnc(Nc4ccc(S(N)(=O)=O)cc4)nc3n2C12CCCCC2 [Compound 45, 4-((3′-methyl-1′H-spiro[cyclohexane-1,4′-pyrimido[5′,4′:4,5]pyrrolo[2,1-c][1,2,4]triazin]-7′-yl)amino)benzenesulfonamide]
9 nM | 15 nM | 3 nM | 15 nM | 4 nM | – | – | 9 nM | CC1C(=O)Nc2cc3cnc(Nc4ccc(C(=O)N5CCN(C)CC5)cc4)nc3n2C12CCCCC2 (centres unmarked) [Compound 71, 8′-methyl-2′-((4-(4-methylpiperazine-1-carbonyl)phenyl)amino)-6′H-spiro[cyclohexane-1,9′-pyrrolo[1,5-a:2,3-d′]dipyrimidin]-7′(8′H)-one]
– | 7 nM | 1 nM | – | 1 nM | 10 nM | – | 6 nM | CC1C(=O)Nc2cc3cnc(Nc4ccc(S(N)(=O)=O)cc4)nc3n2C12CCCCC2 (centres unmarked) [Compound 42, 4-((8′-methyl-7′-oxo-7′,8′-dihydro-6′H-spiro[cyclohexane-1,9′-pyrrolo[1,5-a:2,3-d′]dipyrimidin]-2′-yl)amino)benzenesulfonamide]
595 nM | > 1000 nM | 349 nM | > 1000 nM | 841 nM | – | – | 284 nM | CNC(=O)Nc1ccc(Nc2ncc3cc4n(c3n2)C2(CCCCC2)C(=O)NN4)cc1 [Compound 68, 1-methyl-3-(4-((3′-oxo-2′,3′-dihydro-1′H-spiro[cyclohexane-1,4′-pyrimido[5′,4′:4,5]pyrrolo[2,1-c][1,2,4]triazin]-7′-yl)amino)phenyl)urea]
361 nM | > 1000 nM | 287 nM | 920 nM | 322 nM | – | – | 183 nM | Nc1ccc(S(=O)(=O)Nc2ncc3cc4n(c3n2)C2(CCCCC2)CNC4=O)cc1 [Compound 91, 4-amino-N-(6′-oxo-7′,8′-dihydro-6′H-spiro[cyclohexane-1,9′-pyrazino[1′,2′:1,5]pyrrolo[2,3-d]pyrimidin]-2′-yl)benzenesulfonamide]
172 nM | 146 nM | 5 nM | 291 nM | 16 nM | – | – | 89 nM | CS(=N)(=O)c1ccc(Nc2ncc3cc4n(c3n2)C2(CCCCC2)C(=O)NN4)cc1 (centres unmarked) [Compound 79, 7′-((4-(S-methylsulfonimidoyl)phenyl)amino)-1′,2′-dihydro-3′H-spiro[cyclohexane-1,4′-pyrimido[5′,4′:4,5]pyrrolo[2,1-c][1,2,4]triazin]-3′-one]
